Here are results for 62 compounds from PubChem BioAssay AID364 (The Scripps Research Institute Molecular Screening Center, 2006).

Calls of active or inactive are those of the source.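 The calls were made as follows: active = concentration giving half-maximal inhibition at or below 20 micromolar; inactive = half-maximal concentration above 20 micromolar, or not dose tested.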

The test system of the test is Jurkat E6.1 viability, ATP luminescence, 48 h. Briefly: cytotoxicity toward Jurkat T cells, primary screen, cell-based, Jurkat E6.1, NIH starter set (AID 364).

On to `c1coc(CNc2ncnc3ccccc23)c1`, for which the CC50 was 2400 nM.
With `COc1ccc(Nc2cc(C)nc(-n3nc(C)cc3C)n2)cc1`, the CC50 was 188 nM.
The result for `CCN(CC)c1ccc(-c2nn3c(-c4cccnc4)nnc3s2)cc1` reads 3270 nM; that for `N#CC1=C2SCC(O)(c3ccccc3)N2C(=O)CC1c1ccccc1` (configuration not stated), 806 nM; that for `CCCSc1ccc2nc(NC(=O)OC)[nH]c2c1`, 390 nM.
The result for `CC(=O)/C(C#N)=C1\NC(=O)C(Cc2ccccc2)S1` (configuration not stated) reads > 20000 nM (inactive); that for `CCc1cn([C@H]2C[C@H](O)[C@@H](CO)O2)c(=O)[nH]c1=O`, > 20000 nM (inactive).
On to `CCOc1ccc(C2=Nn3c(nnc3-c3ccccc3OC)SC2)cc1`, for which the CC50 was 26.7 nM.
On to `Cc1ccc(C(=O)CSC2=C(C#N)C(c3ccco3)C3=C(CCCC3=O)N2)cc1` (configuration not stated), for which the CC50 is 2400 nM.
The result for `N#CC1=C(SCC(=O)c2ccc(Cl)cc2)NC2=C(C(=O)CCC2)C1c1ccco1` (configuration not stated) reads 2790 nM; that for `N#CC1=C(N)NC(SCc2ccc(F)cc2)=C(C#N)C12CCCCC2`, 8190 nM; that for `COC(=O)CSc1nnc2n(-c3ccc(OC)cc3)c(=O)c3c4c(sc3n12)CCCCC4`, > 20000 nM (inactive).
For `COc1ccccc1-c1nnc2n1N=C(c1ccc(O)c(O)c1)CS2`, the CC50 was 58.2 nM.
Regarding `O=c1[nH]c(=O)n([C@H]2C[C@H](O)[C@@H](CO)O2)cc1F`, the CC50 was 2730 nM.
The figure for `COc1cccc(Cn2c(NCc3ccco3)nc3c2c(=O)n(C)c(=O)n3C)c1` is 2550 nM.
The figure for `Cc1ccc2nc(NCc3ccccc3)[nH]c2c1` is 3240 nM; for `COc1ccc(CCn2c(=N)c(C#N)cc3c(=O)n4ccccc4nc32)cc1` it is > 20000 nM (inactive).
The figure for `COC(=O)Nc1nc2ccc(Sc3ccccc3)cc2[nH]1` is 574 nM; for `Cc1cccc(-c2nnc3n2N=C(c2ccc(Br)cc2)CS3)c1` it is > 20000 nM (inactive); for `COC(=O)/C(=C1/Oc2cc(C)oc(=O)c2S1)C(F)(F)F` it is 2850 nM.
Regarding `COc1ccc(C2=Nn3c(nnc3-c3ccccc3)SC2)cc1OC`, the CC50 is 5630 nM.
Regarding `CCCCCOc1ccc(C(=O)NCC(=O)NCC(=O)OCC)cc1`, the CC50 was > 20000 nM (inactive).
Turning to `COc1cccc2c1C(=O)c1c(O)c3c(c(O)c1C2=O)C[C@@](O)(C(=O)CO)C[C@@H]3O[C@H]1C[C@H](N)[C@H](O)[C@H](C)O1`, the CC50 was 261 nM.
With `c1ccc2c(c1)CCN(c1ncnc3c1[nH]c1ccccc13)C2`, the CC50 is 1560 nM.
Turning to `COc1cccc(NC(=O)CSC2=C(C#N)C(c3ccco3)C3=C(CCCC3=O)N2)c1` (configuration not stated), the CC50 was 4730 nM.
In the case of `N=c1c2c(-c3ccccc3)c(-c3ccccc3)n(Cc3ccccc3)c2ncn1CCCn1ccnc1`, the CC50 is 19900 nM.
Consider `CC(=O)O[C@H]1C(=O)[C@]2(C)[C@H]([C@H](OC(=O)c3ccccc3)[C@]3(O)C[C@H](OC(=O)[C@H](O)[C@@H](NC(=O)c4ccccc4)c4ccccc4)C(C)=C1C3(C)C)[C@]1(OC(C)=O)CO[C@@H]1C[C@@H]2O`, for which the CC50 was 43.4 nM.
The figure for `CC(=O)O[C@@]12CO[C@@H]1C[C@H](O)[C@@]1(C)C(=O)[C@H](O)C3=C(C)[C@@H](OC(=O)[C@H](O)[C@@H](NC(=O)OC(C)(C)C)c4ccccc4)C[C@](O)([C@@H](OC(=O)c4ccccc4)[C@H]21)C3(C)C` is 55.6 nM; for `CC[C@]1(O)C[C@@H]2CN(CCc3c([nH]c4ccccc34)[C@@](C(=O)OC)(c3cc4c(cc3OC)N(C)[C@H]3[C@@](O)(C(=O)OC)[C@H](OC(C)=O)[C@]5(CC)C=CCN6CC[C@]43[C@@H]65)C2)C1` it is 13.6 nM.
Turning to `CCc1nc(N)nc(N)c1-c1ccc(Cl)cc1`, the CC50 is 2600 nM.
The figure for `COc1ccc2c(c1OC)C(=O)N1c3ccccc3C(=O)N(c3ccccc3F)C21` (configuration not stated) is > 20000 nM (inactive); for `CCCOc1ccc2nc(NC(=O)OC)[nH]c2c1` it is 178 nM.
As for `COc1ccc(C(=O)C(CN2CCCC2)c2ccccc2)cc1` (configuration not stated), the CC50 was 7210 nM.
The result for `CCOC(=O)CSC1=C(C#N)C(c2ccc3c(c2)OCO3)CC(=O)N1` (configuration not stated) reads 6580 nM.
For the compound `C[C@H]1CCC/C=C/C2C[C@H](O)CC2[C@H](O)/C=C/C(=O)O1` (some centres not stated), the CC50 was 368 nM.
The result for `Clc1ccc(-n2ncc3c(NCc4ccco4)ncnc32)cc1` reads 3880 nM; that for `COC(=O)Nc1nc2ccc(C(=O)c3ccccc3)cc2[nH]1`, 229 nM.
The result for `COc1cc(C2C(C#N)=C(N)Oc3cc(N)ccc32)cc(OC)c1OC` (configuration not stated) reads 326 nM; that for `COc1cccc2c1C(=O)c1c(O)c3c(c(O)c1C2=O)C[C@@](O)(C(C)=O)C[C@@H]3O[C@H]1C[C@H](N)[C@H](O)[C@H](C)O1`, 151 nM; that for `N#CC1=C(SCC(=O)c2ccccc2)NC2=C(C(=O)CCC2)C1c1ccco1` (configuration not stated), 1280 nM.
Regarding `c1cc2c(cc1C1=Nn3c(nnc3C3CCCCC3)SC1)OCO2`, the CC50 was 6930 nM.
The figure for `CC[C@]1(O)CC2CN(CCc3c([nH]c4ccccc34)[C@@](C(=O)OC)(c3cc4c(cc3OC)N(C=O)[C@H]3[C@@](O)(C(=O)OC)[C@H](OC(C)=O)[C@]5(CC)C=CCN6CC[C@]43[C@@H]65)C2)C1` (some centres not stated) is under 3 nM; for `Cn1c(Cl)cnc1C1CC(=O)c2cc(Cl)ccc2O1` (configuration not stated) it is 7300 nM.
Consider `CC(=O)OC[C@H]1O[C@@H](n2ncc(=O)[nH]c2=O)[C@H](OC(C)=O)[C@@H]1OC(C)=O`, for which the CC50 is > 20000 nM (inactive).
`CC(C)NCc1c(O)c(Br)cc2oc3c(c12)CCCC3`: the CC50 was > 20000 nM (inactive).
In the case of `CC1(c2ccccc2)NCCN2C(=O)CSC21` (configuration not stated), the CC50 was > 20000 nM (inactive).
The result for `COc1cccc2c(=O)c(SC(F)(F)C(F)C(F)(F)F)c(C)[nH]c12` (configuration not stated) reads 5130 nM; that for `CC(NC(=O)Nc1nnc(C(F)(F)F)s1)(C(F)(F)F)C(F)(F)F`, 2590 nM; that for `Nc1nc(Cl)nc2c1ncn2[C@H]1C[C@H](O)[C@@H](CO)O1`, 1810 nM.
The figure for `COc1cccc(N2CCN(c3ncnc4c3[nH]c3ccc(F)cc34)CC2C)c1` (configuration not stated) is 2270 nM; for `CCC(NC(=O)Nc1nnc(C(F)(F)F)s1)(C(F)(F)F)C(F)(F)F` it is 2220 nM; for `COc1ccc(OC)c(NS(=O)(=O)c2ccc(N3CCCC3=O)cc2)c1` it is 193 nM.
Turning to `N#CC1=C(SCC(=O)c2ccc(Br)cc2)NC2=C(C(=O)CCC2)C1c1ccco1` (configuration not stated), the CC50 is 3050 nM.
The figure for `CC(=O)/C(C#N)=C1\NC(=O)C(Cc2ccccc2Cl)S1` (configuration not stated) is > 20000 nM (inactive); for `Cc1ccc(NC(=O)CSc2nnc(-c3ccco3)c(-c3ccco3)n2)cc1` it is 1710 nM.
With `Fc1ccc2[nH]c3c(N4CCN(Cc5ccc6c(c5)OCO6)CC4)ncnc3c2c1`, the CC50 was 2710 nM.
The figure for `CC[C@H]1CN2CCc3cc(OC)c(OC)cc3[C@@H]2C[C@@H]1C[C@H]1NCCc2cc(OC)c(OC)cc21` is 58.2 nM; for `COc1ccc(C2=Nn3c(nnc3-c3ccccn3)SC2)cc1` it is 4780 nM; for `CO[C@H]1C[C@@H]2CC[C@@H](C)[C@@](O)(O2)C(=O)C(=O)N2CCCC[C@H]2C(=O)O[C@H]([C@H](C)C[C@@H]2CC[C@@H](O)[C@H](OC)C2)CC(=O)[C@H](C)C=C(C)[C@@H](O)[C@@H](OC)C(=O)[C@H](C)C[C@H](C)C=CC=CC=C1C` it is > 20000 nM (inactive).
Regarding `COc1cc([C@@H]2c3cc4c(cc3[C@H](O)[C@H]3COC(=O)[C@H]23)OCO4)cc(OC)c1OC`, the CC50 was 34.9 nM.
The figure for `COc1ccc2c(c1OC)C(=O)O[C@@H]2[C@H]1c2c(cc3c(c2OC)OCO3)CCN1C` is > 20000 nM (inactive).
The result for `COc1cccc(C2=CC(c3ccccc3)n3nnnc3N2)c1` (configuration not stated) reads 1770 nM.

One may read the CC50 as the concentration that lowers cell viability or growth by half.
